Like-named read-outs stand apart in the source and are kept apart here.
Legend:
[1] = target: CYP1A2 (Homo sapiens, UniProt P05177); assay: Inhibition of CYP1A2-mediated phenacetin O-deethylase in ultrapooled human liver microsomes (cocktail, LC-MS/MS); type: in vitro ADME
Protocol: (§1) The inhibitory potentials (IC50 values) of APINACA and typical CYP inhibitors on CYP 1A2, 2A6, 2C8, 2C9, 2C19, 2D6, and 3A4 activities in pooled human liver microsomes were evaluated following our previous method using a cocktail of CYP substrates, followed by LC–MS/MS [43]. […] After 3 min of preincubation at 37 °C, the reaction mixtures were incubated for 15 min at 37 °C with the addition of NADPH in a shaking water bath. The reaction was stopped by adding 100 μL of ice cold methanol containing internal standards (d9-1′-hydroxybufuralol for 1′-hydroxybufuralol, 4′-hydroxydiclofenac, 7-hydroxycoumarin, 1′-hydroxymidazolam, and 4′-hydroxymephenytoin; ^13C2, ^15N-acetaminophen for acetaminophen and N-desethylamodiaquine). The incubation mixtures were centrifuged at 13,000× g for 8 min at 4 °C, and 50 μL of each supernatant was diluted with 50 μL of water. Aliquots (5 μL) of the diluted supernatants were analyzed by LC–MS/MS. All assays were performed in triplicate, and the average values were used for subsequent calculations.
(§2) To measure the time-dependent inhibition, human liver microsomes were preincubated with the various concentrations of APINACA (final concentrations of 0.1−100 μM) and NADPH for 30 min at 37 °C. Next, the reaction mixtures were incubated with a seven-CYP probe substrate cocktail or bupropion for 15 min at 37 °C. […]

[2] = target: CYP2A6 (Homo sapiens, UniProt P11509); assay: Inhibition of CYP2A6-mediated coumarin 7-hydroxylase in ultrapooled human liver microsomes; type: in vitro ADME
CYP2A6, sequence (P11509 whole entry): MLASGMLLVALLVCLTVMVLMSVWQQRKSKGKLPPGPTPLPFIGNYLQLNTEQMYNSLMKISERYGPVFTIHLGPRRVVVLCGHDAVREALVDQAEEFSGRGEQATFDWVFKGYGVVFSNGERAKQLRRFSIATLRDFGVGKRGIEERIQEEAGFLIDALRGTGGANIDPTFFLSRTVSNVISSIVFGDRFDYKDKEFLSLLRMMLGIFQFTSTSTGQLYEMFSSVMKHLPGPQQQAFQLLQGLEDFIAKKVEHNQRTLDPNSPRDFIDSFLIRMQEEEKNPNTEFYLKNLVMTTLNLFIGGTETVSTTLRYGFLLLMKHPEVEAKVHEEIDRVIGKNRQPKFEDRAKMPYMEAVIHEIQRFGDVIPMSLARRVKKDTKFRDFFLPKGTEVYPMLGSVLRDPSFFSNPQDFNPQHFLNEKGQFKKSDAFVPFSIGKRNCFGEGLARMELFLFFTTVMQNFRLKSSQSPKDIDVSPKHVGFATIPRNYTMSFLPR
Protocol: as §1, §2

[3] = target: CYP2C9 (Homo sapiens, UniProt P11712); assay: Inhibition of CYP2C9-catalyzed diclofenac 4′-hydroxylase in ultrapooled human liver microsomes; type: in vitro ADME; details: CYP2C9 diclofenac 4′-hydroxylase
CYP2C9, sequence (P11712 whole entry): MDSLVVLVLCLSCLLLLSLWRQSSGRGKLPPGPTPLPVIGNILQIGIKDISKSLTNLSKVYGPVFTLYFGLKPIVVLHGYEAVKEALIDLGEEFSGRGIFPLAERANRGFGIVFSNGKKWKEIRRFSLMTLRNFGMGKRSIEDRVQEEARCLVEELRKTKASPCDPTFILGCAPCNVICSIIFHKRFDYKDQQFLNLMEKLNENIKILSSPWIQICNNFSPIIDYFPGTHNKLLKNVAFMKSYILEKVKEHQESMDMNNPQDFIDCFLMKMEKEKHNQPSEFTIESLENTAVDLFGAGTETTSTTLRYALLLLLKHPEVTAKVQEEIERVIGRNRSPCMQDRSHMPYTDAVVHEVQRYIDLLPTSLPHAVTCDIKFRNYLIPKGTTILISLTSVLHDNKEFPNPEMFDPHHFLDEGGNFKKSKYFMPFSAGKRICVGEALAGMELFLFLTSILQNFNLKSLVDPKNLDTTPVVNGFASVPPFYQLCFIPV
Protocol: The inhibitory potentials (IC50 values) of APINACA and typical CYP inhibitors on CYP 1A2, 2A6, 2C8, 2C9, 2C19, 2D6, and 3A4 activities in pooled human liver microsomes were evaluated following our previous method using a cocktail of CYP substrates, followed by LC–MS/MS [43]. […]. After 3 min of preincubation at 37 °C, the reaction mixtures were incubated for 15 min at 37 °C with the addition of NADPH in a shaking water bath. The reaction was stopped by adding 100 μL of ice cold methanol containing internal standards (d9-1′-hydroxybufuralol for 1′-hydroxybufuralol, 4′-hydroxydiclofenac, 7-hydroxycoumarin, 1′-hydroxymidazolam, and 4′-hydroxymephenytoin; ^13C2, ^15N-acetaminophen for acetaminophen and N-desethylamodiaquine). […] Aliquots (5 μL) of the diluted supernatants were analyzed by LC–MS/MS.
Next, the reaction mixtures were incubated with a seven-CYP probe substrate cocktail or bupropion for 15 min at 37 °C.
The LC-MS/MS system was comprised of an Agilent 6495 triple quadrupole mass spectrometer coupled with an Agilent 1290 Infinity system (Agilent Technologies, CA, USA). The column and autosampler temperatures were 40 °C and 4 °C, respectively.
The data were processed using Mass Hunter software (Agilent Technologies).
(§3) 12.5 (Systat Software, Inc.; San Jose, CA, USA). […] 1.1 (Systat Software, Inc.).

[4] = target: UGT1A3 (Homo sapiens, UniProt P35503); assay: Inhibition of UGT1A3-catalyzed chenodeoxycholic acid 24-acyl-β-glucuronidation in human liver microsomes; type: in vitro ADME
UGT1A3, sequence (P35503 29-534): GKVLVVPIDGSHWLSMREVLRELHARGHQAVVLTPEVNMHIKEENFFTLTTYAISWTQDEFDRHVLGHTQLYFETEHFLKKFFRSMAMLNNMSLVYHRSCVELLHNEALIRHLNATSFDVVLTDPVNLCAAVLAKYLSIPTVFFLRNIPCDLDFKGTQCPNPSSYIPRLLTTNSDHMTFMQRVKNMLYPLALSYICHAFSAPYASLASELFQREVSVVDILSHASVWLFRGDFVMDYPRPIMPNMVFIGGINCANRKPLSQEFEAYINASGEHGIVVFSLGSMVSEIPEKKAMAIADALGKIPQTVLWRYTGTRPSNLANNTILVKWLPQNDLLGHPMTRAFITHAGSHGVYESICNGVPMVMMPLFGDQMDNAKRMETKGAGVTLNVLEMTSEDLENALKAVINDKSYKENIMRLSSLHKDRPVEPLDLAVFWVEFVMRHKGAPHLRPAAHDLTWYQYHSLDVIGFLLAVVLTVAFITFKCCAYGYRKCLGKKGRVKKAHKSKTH
Protocol: The inhibitory effect of APINACA and typical UGT inhibitors on UGT1A1, UGT1A3, UGT1A4, UGT1A6, UGT1A9, and UGT2B7 were evaluated following our previous method by LC–MS/MS after incubation of ultrapooled human liver microsomes with a cocktail of UGT substrates [44]. […] The reactions were initiated by adding UDPGA, and the incubation continued for 60 min at 37 °C in a shaking water bath. The reactions were terminated by adding 50 μL of ice-cold acetonitrile containing internal standards (propofol glucuronide for chenodeoxycholic acid 24-acyl-β-glucuronide and mycophenolic acid glucuronide; and meloxicam for SN-38 glucuronide, trifluoperazine glucuronide, N-acetylserotonin β-D-glucuronide, and naloxone 3-β-D-glucuronide). The incubation mixtures were centrifuged at 13,000× g for 8 min at 4 °C. Next, 50 μL of each supernatant of A and B set was mixed, and aliquots (5 μL) were analyzed by LC–MS/MS. All assays were performed in triplicate, and the average values were used in calculations.
To measure the time-dependent inhibition, human liver microsomes were preincubated with the various concentrations of APINACA (final concentrations of 0.1–100 μM) and UDPGA for 30 min at 37 °C. Next, the reaction mixtures were incubated with UGT probe substrate cocktail sets for 60 min at 37 °C. The control reaction was performed by adding methanol instead of the test compounds.

[5] = target: T1, OCT2 (Homo sapiens, UniProt O15244); assay: Uptake of [3-H]methyl-4-phenylpyridinium in HEK293-OCT2 cells; type: in vitro ADME
T1 construct: host or cells: HEK293 (transient overexpression)
T1 sequence (O15244 1-555): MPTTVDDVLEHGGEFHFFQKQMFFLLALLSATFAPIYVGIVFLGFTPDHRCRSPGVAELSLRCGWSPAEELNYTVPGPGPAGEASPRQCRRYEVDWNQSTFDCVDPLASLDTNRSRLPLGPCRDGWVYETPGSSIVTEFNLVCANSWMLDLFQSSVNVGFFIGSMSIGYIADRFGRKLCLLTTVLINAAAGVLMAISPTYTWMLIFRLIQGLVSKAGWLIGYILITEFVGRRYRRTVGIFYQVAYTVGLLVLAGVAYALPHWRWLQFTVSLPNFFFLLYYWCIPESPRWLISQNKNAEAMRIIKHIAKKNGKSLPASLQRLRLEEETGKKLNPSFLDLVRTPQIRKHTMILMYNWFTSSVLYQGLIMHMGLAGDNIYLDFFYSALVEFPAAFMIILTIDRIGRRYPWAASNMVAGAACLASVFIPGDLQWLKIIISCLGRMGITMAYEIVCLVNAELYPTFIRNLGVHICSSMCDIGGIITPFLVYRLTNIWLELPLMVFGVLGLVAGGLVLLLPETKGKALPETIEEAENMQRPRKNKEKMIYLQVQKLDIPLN
Protocol: To examine the effects of APINACA and typical inhibitors on transporter activity, the uptake of a probe substrate into HEK293 cells overexpressing the respective solute carrier transporters was measured in the presence of APINACA (final concentrations of 0–250 μM) or typical inhibitors for 5 min. The concentrations and probe substrates were selected as follows: 0.1 μM [3-H]MPP^+ (for OCT1 and OCT2), 0.1 μM [3-H]PAH (for OAT1), 0.1 μM [3-H]ES (for OAT3 and OATP1B1), and 0.1 μM [3-H]EG (for OATP1B3).
as §3

[6] = target: P-glycoprotein (P-gp) (Homo sapiens, UniProt P08183); assay: B to A transport of [3-H]digoxin in LLC-PK1-MDR1 cells
P-glycoprotein (P-gp), sequence (P08183 whole entry): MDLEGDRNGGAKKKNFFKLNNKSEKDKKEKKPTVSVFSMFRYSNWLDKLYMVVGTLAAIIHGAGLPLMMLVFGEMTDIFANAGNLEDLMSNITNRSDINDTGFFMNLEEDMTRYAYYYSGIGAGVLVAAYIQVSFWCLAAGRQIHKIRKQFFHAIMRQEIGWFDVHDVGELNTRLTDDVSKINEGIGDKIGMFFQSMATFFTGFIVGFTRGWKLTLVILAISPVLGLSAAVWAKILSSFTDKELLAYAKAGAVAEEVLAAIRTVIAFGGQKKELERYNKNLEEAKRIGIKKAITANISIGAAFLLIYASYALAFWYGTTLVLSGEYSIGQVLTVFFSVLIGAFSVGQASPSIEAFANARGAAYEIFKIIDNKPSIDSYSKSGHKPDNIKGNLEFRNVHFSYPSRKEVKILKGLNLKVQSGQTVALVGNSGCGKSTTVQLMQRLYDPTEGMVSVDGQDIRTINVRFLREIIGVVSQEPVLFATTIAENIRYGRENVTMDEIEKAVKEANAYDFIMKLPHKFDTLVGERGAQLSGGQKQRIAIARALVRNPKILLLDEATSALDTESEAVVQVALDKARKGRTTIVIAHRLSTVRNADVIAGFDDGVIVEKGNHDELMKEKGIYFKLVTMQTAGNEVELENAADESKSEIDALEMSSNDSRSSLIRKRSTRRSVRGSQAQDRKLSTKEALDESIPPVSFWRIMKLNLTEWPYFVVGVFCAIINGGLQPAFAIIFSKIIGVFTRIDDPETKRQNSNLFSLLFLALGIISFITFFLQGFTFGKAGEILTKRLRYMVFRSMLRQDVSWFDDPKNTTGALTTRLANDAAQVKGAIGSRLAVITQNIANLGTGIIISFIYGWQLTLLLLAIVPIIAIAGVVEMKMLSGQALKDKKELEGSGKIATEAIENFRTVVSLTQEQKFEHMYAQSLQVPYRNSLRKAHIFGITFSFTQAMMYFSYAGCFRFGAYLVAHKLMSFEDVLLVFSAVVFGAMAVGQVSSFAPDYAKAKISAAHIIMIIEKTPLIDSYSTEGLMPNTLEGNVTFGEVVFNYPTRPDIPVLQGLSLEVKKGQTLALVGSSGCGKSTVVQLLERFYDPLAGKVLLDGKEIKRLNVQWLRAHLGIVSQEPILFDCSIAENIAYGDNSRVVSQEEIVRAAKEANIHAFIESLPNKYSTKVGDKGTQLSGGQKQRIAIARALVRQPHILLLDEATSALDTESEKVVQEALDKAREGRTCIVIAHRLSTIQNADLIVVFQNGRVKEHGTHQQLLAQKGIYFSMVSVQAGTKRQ
Protocol: The cells were seeded onto filter membranes at a density of 2 × 10^5 cells/well for 5 days with TEER values over 450 Ω·cm^2. The B to A transport of 0.1 μM [3-H]digoxin in LLC-PK1-MDR1 cells was measured by adding 1.5 mL of HBSS containing APINACA (final concentrations of 0–100 μM) on the basal side and by adding 0.5 mL of HBSS without APINACA on the apical side of the insert using protocols identical to those described above.
1.1 (Systat Software, Inc.).

CYP1A2, sequence (P05177 whole entry): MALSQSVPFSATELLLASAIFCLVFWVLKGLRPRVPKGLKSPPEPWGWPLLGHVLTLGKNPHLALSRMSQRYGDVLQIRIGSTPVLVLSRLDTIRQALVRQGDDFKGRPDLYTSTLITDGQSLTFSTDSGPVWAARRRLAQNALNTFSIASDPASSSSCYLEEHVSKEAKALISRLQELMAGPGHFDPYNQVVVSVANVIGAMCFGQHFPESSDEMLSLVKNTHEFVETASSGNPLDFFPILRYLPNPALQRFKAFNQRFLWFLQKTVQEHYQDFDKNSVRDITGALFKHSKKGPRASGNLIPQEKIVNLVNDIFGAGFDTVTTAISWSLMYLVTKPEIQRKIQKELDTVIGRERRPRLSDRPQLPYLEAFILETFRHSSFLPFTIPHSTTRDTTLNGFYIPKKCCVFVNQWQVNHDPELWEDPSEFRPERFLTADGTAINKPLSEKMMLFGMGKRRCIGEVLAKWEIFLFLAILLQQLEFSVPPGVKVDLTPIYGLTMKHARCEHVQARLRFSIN

SMILES: CCCCCn1nc(C(=O)NC23CC4CC(CC(C4)C2)C3)c2ccccc21 [APINACA, N-(1-adamantyl)-1-pentyl-1H-indazole-3-carboxamide]
- IC50 [1]: > 100 µM
- IC50 ([1]; read-out: IC50 (μM) With Preincubation, CYP1A2 phenacetin O-deethylase, ultrapooled human liver microsomes, 30-min preincubation with NADPH): > 100 µM
- IC50 [2]: > 100 µM
- IC50 ([2]; read-out: IC50 (μM) With Preincubation, CYP2A6 coumarin 7-hydroxylase, ultrapooled human liver microsomes, 30-min preincubation with NADPH): > 100 µM
- IC50 ([3]; IC50 (μM) No Preincubation, 10 μM diclofenac, no preincubation): > 100 µM
- IC50 ([3]; IC50 (μM) With Preincubation, 30-min preincubation with NADPH): 85 µM
- IC50 at 15 min ([3]; human, microsomes, pH 7.4, IC50 (μM) With Preincubation, 30-min preincubation with NADPH): > 100 µM
- IC50 [4]: > 100 µM
- IC50 ([4]; read-out: IC50 UGT1A3 chenodeoxycholic acid glucuronidation, with 30-min preincubation, pooled human liver microsomes, 30-min preincubation with UDPGA (○)): > 100 µM
- IC50 [5]: > 250 µM
- IC50 [6]: > 100 µM

— article PMC6720883, “In Vitro Inhibitory Effects of APINACA on Human Major Cytochrome P450, UDP-Glucuronosyltransferase Enzymes, and Drug Transporters” (Molecules, 2019)
